Key:
[1] = test system: THP1 cells; test: Trypan blue assay, cell viability; assay type: cell-based; settings: Homo sapiens, THP-1, 48 h, average of three experiments
Protocol: (§1) In order to determine the anticancer potency, the synthesized oxindole derivatives were evaluated for anti-cancer activity various different human cancer cell lines, Leukemic Cancer (THP1), human breast cancer (MDA-MB-231 and MCF-7), human cervix carcinoma cells (HeLa), prostate cancer (DU-145) cellS by using standard Trypan blue and SRB assays. The preliminary anticancer activity for all the synthesized compounds was done at 10 μM concentration and cell inhibition was determined. […] The experiment was repeated thrice and the average values were taken.
The assay was carried out in a 24 well flat-bottomed microtiter tissue culture plate. THP1 cells were seeded in the plates with a density of 4×10^4 cells/well (counted by tryphan blue exclusion dye method). Compounds were added to obtain a concentration of 10 μM. Sunitinib was used as positive control. Plates were incubated for 48 h at 37° C. in a humidified incubator with 5% CO2. At the end of the treatments, cells (THP1) were resuspended in 0.4% trypan blue and percent cell viability was counted using countess cell chamber (Life Technologies).

[2] = test system: DU-145 cells; test: SRB assay, cell viability; assay type: cell-based; settings: Homo sapiens, 48 h, average of three experiments, read-out: DU145 Cell Viability at 10 μM
Protocol: as §1
(§2) The assay was carried out in a 24 well flat-bottomed microtiter tissue culture plate. Cells were seeded in the plates with a density of 4×10^4 cells/well (counted by tryphan blue exclusion dye method). After 24 hours media was replaced with fresh media and then compounds were added to obtain a concentrations of 10 μM. Sunitinib was used as positive control. Plates were incubated for 48 h at 37° C. in a humidified incubator with 5% CO2. After 48 hours without removing the cell culture supernatant, 500 μl of cold 10% (wt/vol) TCA was added to each well, and the plates were incubated at 4° C. for 1 h. The plates were washed for four times with water then rinsed with water several times to remove TCA, serum, proteins and excess water was removed using paper towels and air dried. 100 μl of 0.4% (wt/vol in 1% acetic acid) SRB solution was added to each well. Plates were left at room temperature for 30 min and then the plates were quickly rinsed for four times with 1% (vol/vol) acetic acid to remove unbound dye were and then air dried until no moisture was visible. 100 μl of 10 mM Tris base solution (pH 10.5) was added to each well and shake for 5 min to solubilize the protein-bound dye. Optical density was measured at 564 nm in a micro plate reader.

[3] = test system: HeLa cells; test: SRB assay, cell viability; assay type: cell-based; settings: Homo sapiens, 48 h, average of three experiments
Protocol: as §1, §2

[4] = test system: MCF-7 cells; test: SRB assay, cell viability; assay type: cell-based; settings: Homo sapiens, MCF7, 48 h, average of three experiments
Protocol: as §1, §2

[5] = test system: MDA-MB-231 cells; test: SRB assay, cell viability; assay type: cell-based; settings: Homo sapiens, 48 h, average of three experiments
Protocol: as §1, §2

[6] = test system: THP1 cells; assay type: cell-based, human; settings: THP-1 cells, 10 μM, 24 h; untreated cells 68.3%
Protocol: To understand the anticancer activity mechanism of the synthesized oxindole derivatives, we analysed the cell cycle alteration phase distribution of the cells by treating THP1 cells with oxindole derivatives at 10 μM, for 24 h and analyzed by flow cytometry. Treatment of THP-1 cells with compounds 2b, 3d, 3e, 3g, 3h, 3i, 3j and 3k caused an accumulation of 98.5%, 94.3%, 96.7%, 97%, 98%, 83%, 93.5%, 98.1% cells in the G0/G1 phase respectively as compared to 68.3% in untreated cells and 99.5% in Sunitinib treated cells. […] (Fig. x and Table .y).
The THP1 cells were treated with the active compounds at […] and incubated for about 24 h. The cells were fixed in ice cold ethanol solvent at 4° C. for about 30 minutes. The ethanol was removed and cells were treated with 1 mL of DNA staining solution (2 mg of RNase and 0.2 mg of propidium iodide (PI)) for 30 minutes. The DNA content was measured by flow cytometry (BD FACS C anto II). Results were analysed using FCS express 4 plus software.

[7] = test system: VEGF tyrosin kinase (VEGFR); test: VEGFR activity, phosphotyrosine (PY) cell-based ELISA; settings: 10 μM, 60 min pretreatment, VEGF stimulation
Protocol: Briefly, cells at 60-75% confluence were placed in serum-free medium for 18 h to reduce the background of phosphorylation. Cells were then pretreated for 60 min with 2b, 3d, 3e, 3g, 3h, 3i, 3j and 3k compounds at 10 μM concentration followed by an optimized dose of purified growth factor (VEGF). The reaction was stopped, and cells were permeabilized by quickly removing the media from the cells and adding ice-cold Tris-buffered saline (TBS) containing 0.05% triton X-100, protease inhibitor cocktail, and tyrosine phosphatase inhibitor cocktail (both from Sigma Chemical). The TBS solution was then removed, and cells were fixed to the plate by heat and further incubation in 70% ethanol. Cells were further exposed to block (TBS with 1% BSA) and washed, and then a horseradish peroxidase (HRP)-conjugated phosphotyrosine antibody was added. The antibody was removed; cells were washed again and exposed to an enhanced luminol ELISA substrate, and light emission was measured using a plate reader. The known RTK-specific kinase inhibitor (Sunitinib) was used as positive control for kinase inhibition.

SMILES: O=C1Cc2cc(C(C#Cc3ccccc3)c3ccccc3)c(O)cc2N1 (stereo not shown) [Compound 2a, 5-(1,3-Diphenylprop-2-yn-1-yl)-6-hydroxyindolin-2-one]
- viability at 10 µM [1]: 34.5%
- viability at 10 µM [2]: 41.7%
- viability at 10 µM [3]: 36.6%
- viability at 10 µM [4]: 39.7%
- viability at 10 µM [5]: 71.3%
- melting point: 195 to 196 °C

SMILES: COc1cccc(C(C#CCOCc2ccccc2)c2cc3c(cc2O)NC(=O)C3)c1OC (stereo not shown) [Compound 2b, 5-(4-(Benzyloxy)-1-(2,3-dimethoxyphenyl)but-2-ynyl)-6-hydroxyindolin-2-one]
- viability at 10 µM [1]: 48.5%
- viability at 10 µM [2]: 51.2%
- viability at 10 µM [3]: 40.4%
- viability at 10 µM [4]: 39.8%
- viability at 10 µM [5]: 42.8%
- accumulation of cells in the G0/G1 phase [6]: 98.5%
- inhibitory activity of VEGF tyrosin kinase activity [7]: inhibitory activity
- melting point: 177 to 179 °C

SMILES: O=C1Cc2cc3c(-c4ccccc4)c(Cc4ccccc4)oc3cc2N1 [Compound 3a, 2-Benzyl-3-phenyl-5H-furo[3,2-f]indol-6(7H)-one]
- viability at 10 µM [1]: 53.6%
- viability at 10 µM [2]: 21.7%
- viability at 10 µM [3]: 27.6%
- viability at 10 µM [4]: 51.1%
- viability at 10 µM [5]: 53.8%
- melting point: 196 to 198 °C

SMILES: COc1cccc(-c2c(CCOCc3ccccc3)oc3cc4c(cc23)CC(=O)N4)c1OC [Compound 3b, 2-(2-(Benzyloxy)ethyl)-3-(2,3-dimethoxyphenyl)-5H-furo [3,2-f] indol-6(7H)-one]
- viability at 10 µM [1]: 75.5%
- viability at 10 µM [2]: 69.2%
- viability at 10 µM [3]: 40.5%
- viability at 10 µM [4]: 49.3%
- viability at 10 µM [5]: 72.5%
- melting point: 120 to 122 °C

SMILES: Cc1cc(C)c(/C=C2\C(=O)Nc3cc(O)c(C(C#Cc4ccccc4)c4ccccc4)cc32)[nH]1 (stereo not shown) [Compound 3c, (Z)-3-((3,5-dimethyl-1H-pyrrol-2-yl)methylene)-5-(1,3-diphenylprop-2-yn-1-yl)-6-hydroxyindolin-2-one]
- viability at 10 µM [1]: 125%
- viability at 10 µM [2]: 81.3%
- viability at 10 µM [3]: 78.2%
- viability at 10 µM [4]: 49.9%
- viability at 10 µM [5]: 74.5%
- melting point: 173 to 179 °C

SMILES: Cc1ccsc1/C=C1\C(=O)Nc2cc(O)c(C(C#Cc3ccccc3)c3ccccc3)cc21 (stereo not shown) [Compound 3d, (Z)-5-(1,3-diphenylprop-2-yn-1-yl)-6-hydroxy-3-((3-methylthiophen-2-yl)methylene)indolin-2-one]
- viability at 10 µM [1]: 33.3%
- viability at 10 µM [2]: 45.5%
- viability at 10 µM [3]: 71.3%
- viability at 10 µM [4]: 30.7%
- viability at 10 µM [5]: 35.9%
- accumulation of cells in the G0/G1 phase [6]: 94.3%
- inhibitory activity of VEGF tyrosin kinase activity [7]: inhibitory activity
- melting point: 182 to 185 °C

SMILES: CN(C)c1ccc(/C=C2\C(=O)Nc3cc(O)c(C(C#Cc4ccccc4)c4ccccc4)cc32)c2ccccc12 (stereo not shown) [Compound 3e, (Z)-3-((4-(dimethylamino)naphthalen-1-yl)methylene)-5-(1,3-diphenylprop-2-yn-1-yl)-6-hydroxyindolin-2-one]
- viability at 10 µM [1]: 125%
- viability at 10 µM [2]: 48.2%
- viability at 10 µM [3]: 153%
- viability at 10 µM [4]: 78.2%
- viability at 10 µM [5]: 85.9%
- accumulation of cells in the G0/G1 phase [6]: 96.7%
- inhibitory activity of VEGF tyrosin kinase activity [7]: inhibitory activity
- melting point: 188 to 192 °C

SMILES: COc1cccc(C(C#CCOCc2ccccc2)c2cc3c(cc2O)NC(=O)/C3=C\c2[nH]c(C)cc2C)c1OC (stereo not shown) [Compound 3f]
- viability at 10 µM [1]: 30.2%
- viability at 10 µM [2]: 62.1%
- viability at 10 µM [3]: 39.4%
- viability at 10 µM [4]: 33.1%
- viability at 10 µM [5]: 37.7%
- melting point: 181 to 183 °C

SMILES: Cc1ccc(S(=O)(=O)n2cc(C(C#Cc3ccccc3)c3cc4c(cc3O)NC(=O)/C4=C\c3[nH]c(C)cc3C)c3ccccc32)cc1 (stereo not shown) [Compound 3g, (Z)-3-((3,5-dimethyl-1H-pyrrol-2-yl)methylene)-6-hydroxy-5-(3-phenyl-1-(1-tosyl-1H-indol-3-yl)prop-2-yn-1-yl)indolin-2-one]
- viability at 10 µM [1]: 104%
- viability at 10 µM [2]: 94.3%
- viability at 10 µM [3]: 88.3%
- viability at 10 µM [4]: 91.5%
- viability at 10 µM [5]: 63.8%
- accumulation of cells in the G0/G1 phase [6]: 97%
- inhibitory activity of VEGF tyrosin kinase activity [7]: inhibitory activity
- melting point: 185 to 186 °C

SMILES: Cc1cc(C)c(/C=C2\C(=O)Nc3cc4oc(Cc5ccccc5)c(-c5ccccc5)c4cc32)[nH]1 [Compound 3h, (Z)-2-benzyl-5-((3,5-dimethyl-1H-pyrrol-2-yl)methylene)-3-phenyl-5H-furo[3,2-f]indol-6(7H)-one]
- viability at 10 µM [1]: 36.2%
- viability at 10 µM [2]: 58.6%
- viability at 10 µM [3]: 40.3%
- viability at 10 µM [4]: 40.5%
- viability at 10 µM [5]: 41.3%
- accumulation of cells in the G0/G1 phase [6]: 98%
- inhibitory activity of VEGF tyrosin kinase activity [7]: inhibitory activity
- melting point: 186 to 188 °C

SMILES: COc1cccc(-c2c(COCc3ccccc3)oc3cc4c(cc23)/C(=C/c2[nH]c(C)cc2C)C(=O)N4)c1OC [Compound 3k, (Z)-2-((benzyloxy)methyl)-3-(2,3-dimethoxyphenyl)-5-((3,5-dimethyl-1H-pyrrol-2-yl)methylene)-5H-furo[3,2-f]indol-6(7H)-one]
- viability at 10 µM [1]: 80.5%
- viability at 10 µM [2]: 62.7%
- viability at 10 µM [3]: 38.9%
- viability at 10 µM [4]: 43.1%
- viability at 10 µM [5]: 109%
- accumulation of cells in the G0/G1 phase [6]: 98.1%
- inhibitory activity of VEGF tyrosin kinase activity [7]: inhibitory activity

SMILES: COc1cccc(-c2c(COCc3ccccc3)oc3cc4c(cc23)/C(=C/c2sccc2C)C(=O)N4)c1OC [Compound 3l, (Z)-2-((benzyloxy)methyl)-3-(2,3-dimethoxyphenyl)-5-((3-methylthiophen-2-yl)methylene)-5H-furo[3,2-f]indol-6(7H)-one]
- viability at 10 µM [1]: 106%
- viability at 10 µM [2]: 49.7%
- viability at 10 µM [3]: 52%
- viability at 10 µM [4]: 79%
- viability at 10 µM [5]: 111%

SMILES: Cc1ccc(S(=O)(=O)n2cc(-c3c(Cc4ccccc4)oc4cc5c(cc34)/C(=C/c3[nH]c(C)cc3C)C(=O)N5)c3ccccc32)cc1 [Compound 3m, (Z)-2-benzyl-5-((3,5-dimethyl-1H-pyrrol-2-yl)methylene)-3-(1-tosyl-1H-indol-3-yl)-5H-furo[3,2-f]indol-6(7H)-one]
- viability at 10 µM [1]: 68.2%
- viability at 10 µM [2]: 91.7%
- viability at 10 µM [3]: 87.6%
- viability at 10 µM [4]: 71.4%
- viability at 10 µM [5]: 75.5%
- melting point: 174 to 176 °C

SMILES: CCN(CC)CCNC(=O)c1c(C)[nH]c(/C=C2\C(=O)Nc3ccc(F)cc32)c1C [SUNT, Sunitinib, reference compound]
- viability at 10 µM [1]: 35.2%
- viability at 10 µM [2]: 35%
- viability at 10 µM [3]: 37.1%
- viability at 10 µM [4]: 34.3%
- viability at 10 µM [5]: 39.5%
- accumulation of cells in the G0/G1 phase [6]: 99.5%

From patent US10343991B2, “C5, C6 substituted and/or fused oxindoles as anti-cancer agents and process for preparation thereof” (Council of Scientific & Industrial Research, priority 2016, dated 2019)
